Experiments:
[1] = test system: LPS-induced TNF-α production; assay: In Vivo Rodent Assay for Inhibition of TNF-α Production (mice); set-up: species or system Mice (BALB/cJ females); conditions: oral dosing, LPS 1 mg/kg i.p., serum TNF-α
Protocol: C. In Vivo Rodent Assay for Inhibition of TNF-α Production
Mice (BALB/cJ females, Jackson Laboratories) or rats (Lewis males, Charles River) were fasted for 30 min prior to oral dosing with 5-10 mL/kg of test compound at 5-50 mg/kg. Thirty minutes after dosing, the animals were injected intraperitoneally with LPS at 1 mg/kg and returned to their cages for 1 h. Animals were anesthetized by CO2, exsanguinated by cardiac puncture and whole blood collected (0.1-0.7 mL). The blood was allowed to clot and serum was transferred to a centrifuge tube. This sample was centrifuged, and serum was collected, aliquoted and frozen at −80° C. Samples were tested by commercial ELISA's for TNF-α (Endogen for mouse TNF-α and Biosource for rat TNF-α).

[2] = molecular target: T1, purified recombinant p38 (6×His-p38 expressed in E.coli) (Homo sapiens, UniProt Q16539); assay: p38 Inhibition In-Vitro Enzyme Assay; type: biochemical; conditions: myelin basic protein substrate, 33P-ATP; for inhibition at 10 µM: read-out: % p38 inhib @ 10 μM
T1 construct: 6xHis; made in house; host or cells: E. coli
Protocol: A. p38 Inhibition In-Vitro Enzyme Assay
A solution (38 μL) of purified recombinant p38 (6×His-p38 expressed in E.coli), myelin basic protein substrate (determined empirically), and a buffer of pH 7.5 (Hepes:25 mM, MgCl2:10 mM, MnCl2:10 mM) were added to 92 wells of a 96-well round bottom polypropylene plate. The amount of enzyme was determined empirically based on the linear range of the assay and the acceptable signal to noise ratio. The remaining wells were used for control “CTRL”) and background (“BKG”). The CTRL was prepared with the enzyme, substrate buffer and 2% DMSO, and the BKG was prepared with substrate buffer and 2% DMSO.
A solution (12 μL) of the test compound in DMSO was added to the testing wells. […] The ATP/^33P-ATP solution (10 μL containing 50 μM unlabeled ATP and 1 μCi ^33P-ATP) was added to all wells and the completed plates were mixed and incubated at 30° C. for 30 min. Ice-cold 50% TCA/10 mM sodium phosphate (60 μL) was added to each well and the plates were kept on ice for 15 min. The contents of each well were transferred to the wells of a 96-well filterplate (Millipore, MultiScreen-DP) and the filterplate was placed on a vacuum manifold fitted with a waste collection tray. The wells were washed five times with 10% TCA/10 mM sodium phosphate (200 μL) under vacuum. MicroScint-20 scintillant was added, and the plates were sealed using Topseal-S sheets and counted in a Packard TopCount scintillation counter using a ^33P liquid program with color quench correction, where the output is in color quench-corrected cpm. The % inhibition of each test compound as shown in Table 2 was calculated by the following formula: % inhibition=[1−(sample−BKG)/(CTRL−BKG)]×100.
[…] In addition, the IC50 was calculated for some compounds using the Deltagraph 4-parameter curve-fitting program.

[3] = test system: TNF-α production; assay: In-Vitro Whole Cell Assay for TNF-α Inhibition (LPS-stimulated PBMC, ELISA); type: cell-based; conditions: LPS overnight, TNF-α by ELISA
Protocol: B. In-Vitro Whole Cell Assay for TNF-α Inhibition
Freshly obtained venous blood was anticoagulated with heparin, diluted with an equal volume of phosphate buffered saline (“PBS”) and placed in a sterile tube or other container. Aliquots (30 mL) of this mixture were transferred to centrifuge tubes which were underlaid with Ficoll-Hypaque (15 mL). The prepared tubes were centrifuged at 400×g, without braking, for 30 min at room temperature. Approximately ½ to ⅔ of the platelet layer above the mononuclear cell band was removed with a pipette. The majority of the mononuclear cell layer was carefully removed using a pipette and these PBMC's were diluted with PBS and spun at 600×g for 15 min. The resulting PBMC's were washed with another portion of PBS and spun at 400×g for 10 min at room temperature. The recovered pellets were diluted in low endotoxin RPMI/1% FCS culture medium, and gave a cell concentration of 0.5-2.0×10^6 PMBC/mL. A small volume of the suspension was removed for counting on a hemocytometer and the remaining preparation was centrifuged at 200×g for 15 min at room temperature. The recovered pelleted PMBC's were resuspended in RPMI/1% FCS to a concentration of 1.67×10^6/mL.
To run the assay, the PBMC suspension (180 μL) was transferred to duplicate wells of a 96-well flat-bottom microtiter plate and incubated for 1 h at 37° C. A solution of test compound (10 μL: prepared at 20× the desired final concentration) was added to each well and the plate was incubated for 1 h at 37° C. A solution (10 μL) of LPS in RPMI/1% FCS (200 ng/mL) was added and the wells were incubated overnight at 37° C. The supernate (100 μL) was removed from each well and diluted with RPMI/1% FCS (400 μL). The samples were analyzed for TNF-α using a commercial ELISA kit (Genzyme).
The compounds were tested for their ability to inhibit TNF-α production. The IC50 nM results are listed for the indicated compounds.

T1 sequence (Q16539 whole entry): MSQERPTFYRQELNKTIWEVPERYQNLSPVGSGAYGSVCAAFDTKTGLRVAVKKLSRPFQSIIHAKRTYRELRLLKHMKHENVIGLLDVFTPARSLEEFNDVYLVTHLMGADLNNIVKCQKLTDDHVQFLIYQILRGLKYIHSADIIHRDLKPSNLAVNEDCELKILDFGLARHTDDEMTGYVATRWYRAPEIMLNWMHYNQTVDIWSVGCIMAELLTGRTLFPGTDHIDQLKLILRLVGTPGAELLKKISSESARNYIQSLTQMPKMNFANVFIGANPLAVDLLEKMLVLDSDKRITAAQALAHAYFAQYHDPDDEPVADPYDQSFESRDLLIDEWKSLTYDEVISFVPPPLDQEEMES

Structure (SMILES): Fc1ccc(-c2c[nH]c(CCCc3ccccc3)c2-c2ccncc2)cc1 [compound 28, 4-(4-Fluorophenyl)-2-(3-phenylpropyl)-3-(4-pyridyl)pyrrole]
- inhibition in vivo at 10 mg/kg ([1]; Mus musculus, 1 h): 10%
- inhibition in vivo at 25 mg/kg ([1]; Mus musculus, 1 h, 25 mg/kg): 10%
- inhibition at 10 µM [2]: 49%
- IC50 [3]: 3.5 nM

Structure (SMILES): O=[N+]([O-])c1ccc(-n2cc(-c3ccncc3)c(-c3ccc(F)cc3)c2)cc1 [compound 30]
- TNF-α % Inhibition Mouse ([1]; 25 mg/kg): 53%
- % p38 inhib @ 10 μM [2]: 70%
- IC50 [3]: 2 nM

Structure (SMILES): O=[N+]([O-])c1ccc(-n2cc(-c3ccc(F)cc3)c(-c3ccncc3)c2CCCc2ccccc2)cc1 [compound 31, 4-(4-Fluorophenyl)-1-(4-nitrophenyl)-2-(3-phenylpropyl)-3-(4-pyridyl)pyrrole]
- inhibition in vivo at 10 mg/kg ([1]; Mus musculus, 1 h): 47%
- inhibition at 10 µM [2]: 67%
- IC50 [3]: 15 nM

Structure (SMILES): CC(=O)Nc1ccc(-n2cc(-c3ccc(F)cc3)c(-c3ccncc3)c2CCCc2ccccc2)cc1 [compound 32, 1-(4-Acetoaminophenyl)-4-(4-fluorophenyl)-2-(3-phenylpropyl)-3-(4-pyridyl)pyrrole]
- inhibition in vivo at 10 mg/kg ([1]; Mus musculus, 1 h): 48%
- inhibition at 10 µM [2]: 38%
- IC50 [3]: 5 nM
